Laboratory results published in patent publication US9494573B2, “In vitro tumor in dish kit and method” (University of Kansas, priority 2012, dated 2016).

What was measured:
[1] = test system: human ovarian cancer epithelial cells from ascites fluid; assay: Tumor in Dish model using primary tumor cells: cancer cells; type: cell-based; settings: TiD with primary patient cells, FIG. 5
Source text: Human ovarian cancer epithelial cells were isolated from the ascites fluid of a patient and combined with normal cells as described in Example 1 to form TiD.

[2] = test system: normal cells in the PLiD

## N.N.[Cl][Pt][Cl] [cisplatin]
[1]
  killing of ovarian cancer cells from the ascites fluid: killed most of the ovarian cancer cells
[2]
  effect on the surrounding normal cells: affected the normal cells
